Measurements: article PMC7762994 (Viruses, 2020)
Like-named read-outs stand apart in the source and are kept apart here.

Experiments:
Hazara virus (HAZV) [1] = test: microbe, parasite or virus in culture; type: cell-based
CoV 229E = CoV 229E titer in Huh7 cells, end-point dilution assay; type: cell-based, Coronavirus 229E; conditions: MOI 5, 10 µM, 24 h
OGG1 = OGG1 (Homo sapiens, UniProt O15527); test: In vitro OGG1 activity assay; type: biochemical; conditions: for OGG1 activity (in words): Figure 3A
Chain of OGG1 (O15527 whole entry): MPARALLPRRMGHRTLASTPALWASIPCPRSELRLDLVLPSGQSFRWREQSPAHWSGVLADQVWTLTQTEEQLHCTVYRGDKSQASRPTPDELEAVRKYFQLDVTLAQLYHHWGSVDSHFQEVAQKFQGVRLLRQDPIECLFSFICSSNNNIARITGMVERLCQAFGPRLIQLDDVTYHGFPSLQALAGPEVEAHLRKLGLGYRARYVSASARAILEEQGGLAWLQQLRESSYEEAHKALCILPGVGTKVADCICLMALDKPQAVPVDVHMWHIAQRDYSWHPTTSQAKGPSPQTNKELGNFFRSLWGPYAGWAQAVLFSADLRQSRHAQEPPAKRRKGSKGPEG

Huh7 cells = test: Cell viability, resazurin assay; type: cell-based; conditions: Huh7 cells, 24, 48 or 72 h
[2] = Viability of SW13 cells by nuclei count in the HAZV antiviral assay; type: cell-based; conditions: human, SW13 cells inoculated with HAZV; SW13 cells, nuclei count relative to DMSO, 10 μM, 24 h
SW13 cells = test: as above; type: cell-based; conditions: Homo sapiens
Vero cells = test: Cell viability, MTT assay; type: cell-based; conditions: 48 h
EBOV = type: cell-based, Sudan Ebolavirus; conditions: Vero cells, MOI 0.5, 10 µM, 48 h
Hazara virus (HAZV) [3] = test: microbe, parasite or virus in culture; type: cell-based; conditions: SW13, 24 h; for inhibition at 10 µM: read-out: Viral inhibition on primary infection (%)
CCHFV = type: cell-based, Crimean-Congo hemorrhagic fever virus; conditions: Vero cells, MOI 1, 10 µM, 48 h
SARS-CoV-2 = type: cell-based

| Structure (SMILES) | reduction of HAZV viral titer (Hazara virus (HAZV) [1]; 100 µM, positive control) | reduction of CoV 229E titer (CoV 229E) | OGG1 activity (in words) (OGG1) | toxicity profile, cellular viability by resazurin assay (Huh7 cells) | viability at 24 h, 10 µM [2] | EC50 (SW13 cells; SW13, 24 h, read-out: EC50 Living cells) | EC50 (SW13 cells; HAZV, SW13, MOI 1, 24 h, read-out: Viability (nuclei count) EC50) | toxicity profile, viability by MTT assay (Vero cells) | reduction of EBOV viral titer (EBOV) | IC50 (Hazara virus (HAZV) [3]; read-out: Antiviral on primary infection IC50 [µM]) | EC50 (Hazara virus (HAZV) [3]; read-out: EC50 Infected cells (primary infection)) | inhibition at 10 µM (Hazara virus (HAZV) [3]) | reduction of CCHFV viral titer (CCHFV) | IC50 (Hazara virus (HAZV) [1]; Hazara virus, SW13, 24 h, read-out: Antiviral on titer (µM) IC50 [µM]) | EC50 (Hazara virus (HAZV) [1]; Hazara virus, SW13, read-out: EC50 Viral titer) | inhibition at 10 µM (Hazara virus (HAZV) [1]; Hazara virus, Vero, 24 h, read-out: Viral inhibition on titer (%)) | reduction of HAZV titer (Hazara virus (HAZV) [1]; SW13 cells, MOI 1, 10 µM, 24 h) | reduction of SARS-CoV-2 titer (SARS-CoV-2) | IC50 (OGG1) |
| --- | --- | --- | --- | --- | --- | --- | --- | --- | --- | --- | --- | --- | --- | --- | --- | --- | --- | --- | --- |
| NC(=O)c1ncn([C@@H]2O[C@H](CO)[C@@H](O)[C@H]2O)n1 [Ribavirin, reference compound] | 98% |  |  |  |  |  |  |  |  |  |  |  |  |  |  |  |  |  |  |
| O=C(Nc1ccc(I)cc1)N1CCC(n2c(=O)[nH]c3cc(Cl)ccc32)CC1 [TH3289] |  | 84% | Micromolar OGG1activity | favourable toxicity profile | 77% | 46.5 µM | 47.5 µM | favourable toxicity profile | 40% | 18.7 µM | 18.7 µM | 58% | 70% | 14.7 µM | 14.7 µM | 95% | 94% | 58% |  |
| O=C(Nc1ccc(I)cc1)N1CCC(c2c[nH]c3ccccc23)CC1 [TH4448, 4‐(1H‐indol‐3‐yl)‐N‐(4‐iodophenyl)piperidine‐1‐carboxamide] |  |  | No OGG1 activity |  | 82% |  |  |  |  |  |  | 98% |  |  |  |  |  |  | > 99 µM |
